# In publication PMC7016953 (Cells, 2020):
# Assays:
# [1] = target: T1, TRPC3 (Homo sapiens, UniProt Q13507); experiment: Fluo-4 Ca2+ influx assay in HEK TRPC3-YFP cell suspensions; format: cell-based; settings: for TRPC3 activation in concentration response analysis: fluo-4, up to 200 µM, compared with solvent (DMSO); for IC50: inhibitor 5 min, then 50 µM artemisinin, fluo-4, read-out: IC50 for inhibition of artemisinin-induced increases in [Ca2+]i; for effect of preincubation on responses to artemisinin (1–200 µM): 10 µM for 5 min
# T1 construct: expressed in transfected cells
# T1 sequence (Q13507 1-848 isoform Q13507-3): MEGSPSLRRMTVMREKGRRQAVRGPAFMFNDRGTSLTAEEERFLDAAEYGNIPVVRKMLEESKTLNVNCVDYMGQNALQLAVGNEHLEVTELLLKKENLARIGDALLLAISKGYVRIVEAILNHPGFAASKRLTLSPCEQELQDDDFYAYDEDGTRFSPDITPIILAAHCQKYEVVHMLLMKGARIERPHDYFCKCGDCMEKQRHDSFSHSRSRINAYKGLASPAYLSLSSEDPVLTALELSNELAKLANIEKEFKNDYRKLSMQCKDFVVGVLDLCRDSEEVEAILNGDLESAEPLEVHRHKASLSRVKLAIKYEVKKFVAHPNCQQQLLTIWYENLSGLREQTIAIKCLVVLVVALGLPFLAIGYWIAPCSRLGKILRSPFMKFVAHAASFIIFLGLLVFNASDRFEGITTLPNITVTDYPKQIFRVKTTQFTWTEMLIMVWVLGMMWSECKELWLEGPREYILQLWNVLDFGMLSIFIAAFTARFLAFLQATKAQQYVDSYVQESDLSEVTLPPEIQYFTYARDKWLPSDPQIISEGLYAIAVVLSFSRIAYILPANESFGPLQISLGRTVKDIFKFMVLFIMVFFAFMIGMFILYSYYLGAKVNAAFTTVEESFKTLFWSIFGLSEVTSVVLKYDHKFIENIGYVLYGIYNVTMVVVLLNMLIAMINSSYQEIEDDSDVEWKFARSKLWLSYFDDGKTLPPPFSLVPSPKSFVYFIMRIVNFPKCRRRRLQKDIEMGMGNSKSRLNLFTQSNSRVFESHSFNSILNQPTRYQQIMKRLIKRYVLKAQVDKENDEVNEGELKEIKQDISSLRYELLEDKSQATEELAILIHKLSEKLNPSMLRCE
# [2] = system: T2, hTRPC7-YFP; experiment: Fluo-4 Ca2+ influx assay in HEK293 cells stably expressing TRPC7; format: cell-based, human; settings: fluo-4 concentration response analysis
# T2 construct: expressed in transfected cells
# [3] = system: T3, heteromeric TRPC3:TRPC6 channel complexes; experiment: Fluo-4 Ca2+ influx assay in HEK293 cells co-expressing TRPC3 and TRPC6; format: cell-based; settings: fluo-4 concentration response analysis
# T3 construct: expressed in transfected cells; host or cells: HEK293, stably co-transfected
# Experimental: All fluorometric Ca^2+ assays were done in (4-(2-hydroxyethyl)-1-piperazineethanesulfonic acid) (HEPES)-buffered saline (HBS), containing 132 mM NaCl, 6 mM KCl, 1 mM MgCl2, 1 mM CaCl2, 5.5 mM D-glucose, 10 mM HEPES, and 0.035% bovine serum albumin (BSA) adjusted to pH 7.4 with NaOH. For measurements in Ca^2+-free bath solutions, a modified HBS without CaCl2 was supplemented with 200 µM ethylene glycol-bis(β-aminoethyl ether)-N,N,N′,N′-tetraacetic acid (EGTA).
# The primary compound screen and the generation of concentration response curves in HEK293 cells or in PC12 cells were performed by using a custom-made fluorescence plate imager built into a robotic liquid handling station equipped with a 96-tip multichannel head (Freedom Evo 150, Tecan, Männedorf, Switzerland) as described previously. To this end, trypsinized cell suspensions were loaded with 4 µM fluo-4/AM (Invitrogen, Thermo Fisher Scientific, Waltham, MA, U.S.A.) in cell culture medium for 30 min at 37 °C. After brief centrifugation, cells were resuspended in HBS and dispensed into black pigmented, clear-bottom 384-well plates (Greiner µClear, Frickenhausen, Germany). Plates were mounted on the imager, and fluorescence signals were recorded with a cooled Zyla 5.5 camera (Andor, Belfast, UK) through a 515 nm long pass filter. The image acquisition was controlled by the µManager software (http://micro-manager.org), and excitation with a LED array (470 nm) was synchronized by the camera trigger output. After baseline recording for about 60 s, the compound libraries or serial dilutions of activators or inhibitors were added to the cells by the liquid handling device. When inhibitory potencies were evaluated, a second pipetting step with the respective reference agonist was performed. Fluorescence intensities were calculated from image stacks for each well with ImageJ (National Institutes of Health, Bethesda, MD, U.S.A.), corrected for background signals, and normalized to the initial intensities (F/F0). […]
# [4] = system: PC12 cells (native TRPC3 channel complexes); experiment: [Ca2+]i analysis in fura-2-loaded PC12 cells; format: cell-based, rat; settings: artemisinin 50 or 100 µM; 6–12 experiments for each compound
# Experimental: Human embryonic kidney 293 (HEK293) cells were stably transfected with expression plasmids that encode hTRPC3-YFP, hTRPC6-YFP, hTRPC7-YFP, mTRPC4ß-YFP, rTRPV1-CFP, rTRPV2-YFP, rTRPV3-YFP, mTRPV4-YFP, or hTRPM2 as previously described. Cell lines were cultured in Earle’s minimum essential medium (MEM; Sigma, Munich, Germany), supplemented with 10% fetal calf serum (Gibco Thermo Fisher Scientific, Darmstadt, Germany), 2 mM L-glutamine, and required concentrations of geneticin in a range of 0.4–1 mg/mL. A HEK293mTRPC5-YFP cell line was maintained and induced as described before. The HEK293mTRPM3α2 cells (expressing the Ca^2+-permeable main variant of mouse TRPM3) were kindly provided by Johannes Oberwinkler (Marburg, Germany), the HEK293hTRPA1 cells that constitutively overexpress the human TRPA1 were from Dr. Natalie Tigue and Dr. Steve Moore (GlaxoSmithKline, Harlow, UK). With the exception of mTRPC5-YFP, all cell lines constitutively overexpress the respective TRP channel under the control of a cytomegalovirus (CMV) promoter. A HEK cell line stably expressing the human protein kinase C (PKC) ε C-terminally tagged with YFP [13] was generated and maintained in the same medium as HEKTRPC3-YFP cells. PC12 cells were cultured in RPMI-1640 (Sigma, Munich, Germany) with 10% fetal calf serum, 2 mM L-glutamine, 100 U/mL penicillin, and 0.1 mg/mL streptomycin. For electrophysiological and single cell [Ca^2+]i imaging experiments, PC12 cells were plated onto 25 mm poly-L-lysine-coated glass coverslips and measured 24–48 h after seeding. All cells were maintained at 37 °C in a 5% CO2-aerated, humidified atmosphere.
# The microfluorometric single-cell [Ca^2+]i analysis was performed on an inverted epifluorescence microscope (Carl Zeiss, Jena, Germany) and calibrated as described. Cells were grown on 25 mm coverslips and loaded with 4 µM fura-2/AM (AAT Bioquest, Sunnyvale, CA, U.S.A.) in HBS containing 0.2% BSA for 30 min at 37 °C. After gently rinsing the coverslips with HBS, coverslips were mounted in a bath chamber and superfused with HBS containing 0.035% BSA.
# Figure 7 Expression of TRPC3 and functional responses to TRPC activators in PC12 rat pheochromocytoma cells. (A) Immunofluorescence analysis of TRPC3 (green channel) and tyrosine hydroxylase (TH; red channel) expression in PC12 cells. Nuclei were counterstained with DAPI (blue channel). Bars: 20 µm scale. Time course of the [Ca^2+]i (B) and averaged basal and peak [Ca^2+]i values (C) were recorded by microfluorometric analysis in fura-2-loaded PC12 cells grown on glass coverslips. […] Data represent averages (B) or means and S.D. (C) of 6–12 imaging experiments for each compound. Significant increases compared to the respective basal values are indicated (#: p < 0.05; Student´s t-test for paired data).
# [5] = system: PC12 cells (native TRPC3 channel complexes); experiment: Whole-cell patch-clamp recordings in PC12 cells; format: cell-based, rat; settings: 20 µM CBN 2910-0498, 10 µM SAR7334, or 10 µM GSK417654A
# Experimental: The recordings of TRPC3, TRPC6, or TRPC7 membrane currents in HEK293 or PC12 cells were realized by using a Multiclamp 700B amplifier with a Digidata 1440A digitizer controlled by the PClamp 10 software (all Molecular Devices, Sunnyvale, CA, U.S.A.). Recordings were obtained at room temperature either in the whole-cell or in an outside-out configuration as indicated. Cells were seeded as described above, but at lower density, mounted in a chamber (Warner Instruments, Hamden, CT; U.S.A.), placed onto the stage of an inverted microscope, and perfused with required solution. The standard extracellular solution contained 140 mM NaCl, 5 mM CsCl, 2 mM MgCl2, 1 mM CaCl2, 10 mM HEPES, and 0.035% BSA adjusted to pH 7.4 with NaOH. The composition of standard intracellular solution was 140 mM CsCl, 1 mM MgCl2, 5 mM EGTA, and 10 mM HEPES adjusted to pH 7.25 with CsOH; the osmolarity was 295 mOsm l^−1. In outside-out measurements, the pipette solution contained 5 mM EGTA and 1.1 mM CaCl2 to achieve a calculated free Ca^2+ concentration of 100 nM.
# Patch pipettes were pulled from borosilicate glass capillaries BG150F-8P (Science Products, Hofheim, Germany) with a PIP6 pipette puller (HEKA Elektronik, Lambrecht, Germany). […] In all whole-cell measurements, the series resistance was lower than 13 MΩ, and compensated by 70%. If the access was unstable during the experiment (increase in series resistance by more than 15% at the end of the experiment), the cell was omitted from the analysis. To record current/voltage (I/V) curves, voltage ramps (400 mV s^−1) ranging from –100 to +100 mV were applied. Currents were filtered at 3 kHz with a four-pole Bessel filter and sampled at 10 kHz. […]
# Figure 9 Artemisinin-induced ionic currents in HEK293 cells and in PC12 cells are sensitive to established TRPC3 inhibitors. […] Concentration–response curves were normalized to responses measured without an inhibitor (controls), and IC50 values were obtained by fitting a four-parameter Hill equation to the data. […]
structure (smiles),measurement,setting,value
CO[C@H]1O[C@@H]2O[C@@]3(C)CC[C@H]4[C@H](C)CC[C@@H]([C@H]1C)[C@@]24OO3 [artemether],EC50,"[1]; fluo-4, HEK TRPC3-YFP cell suspensions, read-out: potency to activate Ca2+ entry through TRPC3",14800 nM
same,effect on TRPC7,[2],inhibited
same,response of cells stably transfected with both TRPC3 and TRPC6,[3],in a very similar fashion as HEKTRPC3-YFP cells
C[C@H]1[C@H](OC(=O)CCC(=O)O)O[C@@H]2O[C@@]3(C)CC[C@H]4[C@H](C)CC[C@@H]1[C@@]24OO3 [artesunate],TRPC3 activation in concentration response analysis,[1],did not exert signals that were significantly stronger than responses to the solvent
CCO[C@H]1O[C@@H]2O[C@@]3(C)CC[C@H]4[C@H](C)CC[C@@H]([C@H]1C)[C@@]24OO3 [arteether],TRPC3 activation in concentration response analysis,[1],did not exert signals that were significantly stronger than responses to the solvent
same,effect on TRPC7,[2],inhibited
O=C(c1cc2c(s1)CCCCC2)N1CCC(n2c(=O)[nH]c3ccccc32)CC1 [GSK-1702934A],[Ca2+]i in fura 2-loaded PC12 cells,[4],significant increases in [Ca^2+]i
COc1ccc(Nc2nc(C(=O)N3CCc4ccccc4C3)cs2)cc1 [GSK417654A],IC50,[1],500 nM
same,effect on ionic currents stimulated by 50 µM artemisinin in PC12 cells,[5],rapidly reversed
O=C(NCCCCCCNC(=O)ON=C1CCCCC1)ON=C1CCCCC1 [RHC 80267],effect of preincubation on responses to artemisinin (1–200 µM),[1],did not increase the responses
O=c1c2ccccc2[nH]c(=S)n1CCN1CCC(=C(c2ccc(F)cc2)c2ccc(F)cc2)CC1 [R59949],effect of preincubation on responses to artemisinin (1–200 µM),[1],did not increase the responses
N#Cc1ccc(O[C@@H]2c3ccccc3C[C@H]2N2CCC[C@@H](N)C2)c(Cl)c1 [SAR7334],IC50,[1],1400 nM
same,effect on ionic currents stimulated by 50 µM artemisinin in PC12 cells,[5],rapidly reversed
